Data published in patent publication US20240034722A1, “PRETARGETING IMAGING AGENTS” (Eli Lilly and Company, priority 2020, published 2024).
“And” between values parts separate entries of the source, which are not always exact repeats. Equal entries are not always repeated. “Also recorded” adds a separate entry of the source.

Columns and labels:
[1] = Dynamic micro PET-CT imaging, tracer uptake in brain, muscle and bone; assay type: in vivo, CD-1 mice; conditions: CD-1 male mice; for Clearance from the brain: by 60 minutes post injection, relative to muscle; for Crossing of the blood-brain-barrier / Peak brain uptake / Time of peak brain uptake post injection: dynamic PET; for Peak brain uptake / Time of peak brain uptake post injection: i.v.
Method: (§1) A Siemens Inveon® Multimodality Scanner (Siemens, Germany) is used for micro PET-CT imaging. Male CD-1 (6-week-old, ˜30 g) mice are anesthetized with 3% isoflurane/97% oxygen and placed on the bed of the scanner. The mice are administered [^18F]N-(4-(1,2,4,5-tetrazin-3-yl)benzyl)-2-fluoronicotinamide via a bolus intravenous tail vein injection (˜350 ρCi in a total volume of 150 μL saline). A total of four dynamic PET scans are conducted, followed by a short high-resolution CT scan for anatomical registration. PET images are generated for each minute of the acquisition time. Uptake of the tracer in the brain, muscle, and bone are determined by visually drawing regions of interest (ROIs) based on the fused PET/CT images and the corresponding activity values are determined using the Inveon® Research Workplace software. All values are represented as % injected dose per gram (% ID/g).
as §1, with “g) mice were anesthetized with” for “g) mice are anesthetized with”, “are administered [^18F]N-(4-(1,2,4,5-tetrazin-3-yl)benzyl)-6-fluoropicolinamide via a” for “are administered [^18F]N-(4-(1,2,4,5-tetrazin-3-yl)benzyl)-2-fluoronicotinamide via a”, “vein injection (˜300 ρCi in” for “vein injection (˜350 ρCi in”
as §1, with “PET/CT” for “PET-CT”, “30-40” for “˜30”, “[^18F]N-(4-(1,2,4,5-tetrazin-3-yl)benzyl)-6-fluoronicotinamide” for “[^18F]N-(4-(1,2,4,5-tetrazin-3-yl)benzyl)-2-fluoronicotinamide”, “(˜300” for “(˜350”, “two” for “four”

[2] = Stability of the tetrazine moiety in ascorbate formulation; assay type: physicochemical
[3] = wild type mice, dynamic PET, by 10 min post-injection; cited from earlier work
[4] = system: ASO-TCO conjugate; conditions: rats given ASO-TCO intrathecally, tracer i.v. 24 and 168 hours later, static PET-CT 75-90 minutes after tracer; cited from earlier work
[5] = listed as [^18F]N-(4-(1,2,4,5-tetrazin-3-yl)benzyl)-2-fluoronicotinamide

Row | SMILES | Bone uptake throughout the scan period (defluorination) ([1]; 60-min scan) | Uptake throughout the periphery of the body (liver, kidneys, heart) ([1]; PET) | Brain uptake after steady clearance of tracer ([1]; at 59.5 min post injection) | Clearance from the brain [1] | Clearance from the brain [1, 5] | Crossing of the blood-brain-barrier [1] | Peak brain uptake [1] | Time of peak brain uptake post injection [1] | Peak brain uptake [1, 5] | Time of peak brain uptake post injection [1, 5] | Crossing of the blood-brain-barrier [1, 5] | Reduction of the tetrazine moiety by ascorbate formulation [2] | Brain uptake [3] | Radiotracer uptake in brain and spine relative to the control group [4]
1 | O=C(NCc1ccc(-c2nncnn2)cc1)c1cccnc1[18F] [Example 2, [^18F]N-(4-(1,2,4,5-tetrazin-3-yl)benzyl)-2-fluoronicotinamide] | remained low | observed | 1.2 % ID/g | baseline levels defined by uptake in the muscle | near background levels (muscle) | readily cross the blood-brain-barrier | 3.3±0.4 % ID/g | approximately 2 min | 3.3±0.4 % ID/g and 3.3 % ID/g | 4.5 min | readily cross the blood-brain-barrier; also recorded: readily crosses the blood-brain-barrier | readily reduced | – | –
2 | O=C(NCc1ccc(-c2nncnn2)cc1)c1cccc(F)n1 [Example 3, N-(4-(1,2,4,5-tetrazin-3-yl)benzyl)-6-fluoropicolinamide] | – | – | – | – | – | – | – | – | – | – | – | readily reduced | – | –
3 | O=C(Cc1ccc(-c2nncnn2)cc1)NCC[18F] [[^18F]537-Tz, 2-(4-(1,2,4,5-tetrazin-3-yl)phenyl)-N-(2-fluoroethyl)acetamide] | – | – | – | – | – | – | – | – | – | – | – | – | 1.7±0.9 % ID | Higher radiotracer uptake
